In the NIST ThermoML archive (doi:10.1021/je400529k):
Values joined by “and” are separate entries in the source; they are usually repeats but may differ in a detail not shown here. Identical values can stand only once. ± gives the expanded uncertainty stated by the source.

How the values were obtained:
[1] = 101 kPa, Liquid; for viscosity: Capillary tube (Ostwald / Ubbelohde) method; for mass density: Vibrating tube method
[2] = refractive index (Na D-line) (dimensionless); details: 101.33 kPa, Liquid, Standard Abbe refractometry
[3] = refractive index (Na D-line) (dimensionless); xn = mol fraction of the nth substance listed; details: 101 kPa, Liquid, Standard Abbe refractometry
[4] = xn = mol fraction of the nth substance listed; details: 101 kPa, Liquid; for viscosity: Capillary tube (Ostwald / Ubbelohde) method; for mass density: Vibrating tube method

Structure (SMILES)	viscosity ([1]; 293.15 K)	mass density ([1]; 293.15 K)	viscosity ([1]; 298.15 K)	mass density ([1]; 298.15 K)	viscosity ([1]; 303.15 K)	mass density ([1]; 303.15 K)	viscosity ([1]; 308.15 K)	mass density ([1]; 308.15 K)	viscosity ([1]; 313.15 K)	mass density ([1]; 313.15 K)	viscosity ([1]; 318.15 K)	mass density ([1]; 318.15 K)	refractive index ([2]; 293.15 K)	refractive index ([2]; 303.15 K)	refractive index ([2]; 313.15 K)	other results
CCCCC1CCCCC1 [butylcyclohexane]	1.302 ± 0.011 mPa·s	799.47 ± 0.15 kg/m3	1.2 ± 0.011 mPa·s	795.71 ± 0.15 kg/m3	1.111 ± 0.01 mPa·s	791.96 ± 0.15 kg/m3	1.032 ± 0.01 mPa·s	788.2 ± 0.15 kg/m3	0.962 ± 0.01 mPa·s	784.43 ± 0.15 kg/m3	0.899 ± 0.01 mPa·s	780.65 ± 0.15 kg/m3	1.4399 ± 0.001	1.4354 ± 0.001	1.4311 ± 0.001	–
C1C[C@@H]2[C@H]3CC[C@H](C3)[C@@H]2C1 [exo-tetrahydrodicyclopentadiene] + CCC1CCCCC1	–	–	–	–	–	–	–	–	–	–	–	–	–	–	–	refractive index ([3]; 293.15 K, x1 = 1): 1.4874 ± 0.001; refractive index ([3]; 303.15 K, x1 = 1): 1.4831 ± 0.001; refractive index ([3]; 313.15 K, x1 = 1): 1.4786 ± 0.001; viscosity ([4]; 293.15 K, x1 = 1): 2.992 ± 0.02 mPa·s; mass density ([4]; 293.15 K, x1 = 1): 935.72 ± 0.15 kg/m3; viscosity ([4]; 298.15 K, x1 = 1): 2.71 ± 0.018 mPa·s; mass density ([4]; 298.15 K, x1 = 1): 931.84 ± 0.15 kg/m3; viscosity ([4]; 303.15 K, x1 = 1): 2.467 ± 0.017 mPa·s; mass density ([4]; 303.15 K, x1 = 1): 927.9 ± 0.2 kg/m3; viscosity ([4]; 308.15 K, x1 = 1): 2.255 ± 0.016 mPa·s; mass density ([4]; 308.15 K, x1 = 1): 924.02 ± 0.15 kg/m3; viscosity ([4]; 313.15 K, x1 = 1): 2.069 ± 0.015 mPa·s; mass density ([4]; 313.15 K, x1 = 1): 920.11 ± 0.15 kg/m3; viscosity ([4]; 318.15 K, x1 = 1): 1.907 ± 0.014 mPa·s; mass density ([4]; 318.15 K, x1 = 1): 916.18 ± 0.15 kg/m3
C1C[C@@H]2[C@H]3CC[C@H](C3)[C@@H]2C1 [exo-tetrahydrodicyclopentadiene] + CC1CCC(C)C(C)C1	–	–	–	–	–	–	–	–	–	–	–	–	–	–	–	refractive index ([3]; 293.15 K, x1 = 1): 1.4874 ± 0.001; refractive index ([3]; 303.15 K, x1 = 1): 1.4831 ± 0.001; refractive index ([3]; 313.15 K, x1 = 1): 1.4786 ± 0.001; viscosity ([4]; 293.15 K, x1 = 1): 2.992 ± 0.02 mPa·s; mass density ([4]; 293.15 K, x1 = 1): 935.72 ± 0.15 kg/m3; viscosity ([4]; 298.15 K, x1 = 1): 2.71 ± 0.018 mPa·s; mass density ([4]; 298.15 K, x1 = 1): 931.84 ± 0.15 kg/m3; viscosity ([4]; 303.15 K, x1 = 1): 2.467 ± 0.017 mPa·s; mass density ([4]; 303.15 K, x1 = 1): 927.94 ± 0.15 kg/m3; viscosity ([4]; 308.15 K, x1 = 1): 2.255 ± 0.016 mPa·s; mass density ([4]; 308.15 K, x1 = 1): 924.02 ± 0.15 kg/m3; viscosity ([4]; 313.15 K, x1 = 1): 2.069 ± 0.015 mPa·s; mass density ([4]; 313.15 K, x1 = 1): 920.11 ± 0.15 kg/m3; viscosity ([4]; 318.15 K, x1 = 1): 1.907 ± 0.014 mPa·s; mass density ([4]; 318.15 K, x1 = 1): 916.18 ± 0.15 kg/m3
CC1CCCCC1 [methylcyclohexane] + C1C[C@@H]2[C@H]3CC[C@H](C3)[C@@H]2C1	–	–	–	–	–	–	–	–	–	–	–	–	–	–	–	refractive index ([3]; 293.15 K, x2 = 0): 1.422 ± 0.001; refractive index ([3]; 303.15 K, x2 = 0): 1.4172 ± 0.001; refractive index ([3]; 313.15 K, x2 = 0): 1.4118 ± 0.001; viscosity ([4]; 293.15 K, x2 = 0): 0.733 ± 0.009 mPa·s; mass density ([4]; 293.15 K, x2 = 0): 769.35 ± 0.15 kg/m3; viscosity ([4]; 298.15 K, x2 = 0): 0.687 ± 0.009 mPa·s; mass density ([4]; 298.15 K, x2 = 0): 765.04 ± 0.15 kg/m3; viscosity ([4]; 303.15 K, x2 = 0): 0.646 ± 0.009 mPa·s; mass density ([4]; 303.15 K, x2 = 0): 760.71 ± 0.15 kg/m3; viscosity ([4]; 308.15 K, x2 = 0): 0.609 ± 0.009 mPa·s; mass density ([4]; 308.15 K, x2 = 0): 756.36 ± 0.15 kg/m3; viscosity ([4]; 313.15 K, x2 = 0): 0.576 ± 0.009 mPa·s; mass density ([4]; 313.15 K, x2 = 0): 751.99 ± 0.16 kg/m3; viscosity ([4]; 318.15 K, x2 = 0): 0.546 ± 0.009 mPa·s; mass density ([4]; 318.15 K, x2 = 0): 747.6 ± 0.16 kg/m3
CCCCC1CCCCC1 [butylcyclohexane] + C1C[C@@H]2[C@H]3CC[C@H](C3)[C@@H]2C1	–	–	–	–	–	–	–	–	–	–	–	–	–	–	–	refractive index ([3]; 293.15 K, x2 = 0): 1.4399 ± 0.001; refractive index ([3]; 303.15 K, x2 = 0): 1.4354 ± 0.001; refractive index ([3]; 313.15 K, x2 = 0): 1.4311 ± 0.001; viscosity ([4]; 293.15 K, x2 = 0): 1.302 ± 0.011 mPa·s; mass density ([4]; 293.15 K, x2 = 0): 799.47 ± 0.15 kg/m3; viscosity ([4]; 298.15 K, x2 = 0): 1.2 ± 0.011 mPa·s; mass density ([4]; 298.15 K, x2 = 0): 795.71 ± 0.15 kg/m3; viscosity ([4]; 303.15 K, x2 = 0): 1.111 ± 0.01 mPa·s; mass density ([4]; 303.15 K, x2 = 0): 791.96 ± 0.15 kg/m3; viscosity ([4]; 308.15 K, x2 = 0): 1.032 ± 0.01 mPa·s; mass density ([4]; 308.15 K, x2 = 0): 788.2 ± 0.15 kg/m3; viscosity ([4]; 313.15 K, x2 = 0): 0.962 ± 0.01 mPa·s; mass density ([4]; 313.15 K, x2 = 0): 784.43 ± 0.15 kg/m3; viscosity ([4]; 318.15 K, x2 = 0): 0.899 ± 0.01 mPa·s; mass density ([4]; 318.15 K, x2 = 0): 780.65 ± 0.15 kg/m3
C1CCCCC1 [cyclohexane]	0.977 ± 0.01 mPa·s	778.51 ± 0.15 kg/m3	0.898 ± 0.01 mPa·s	773.84 ± 0.15 kg/m3	0.828 ± 0.009 mPa·s	769.11 ± 0.15 kg/m3	0.766 ± 0.009 mPa·s	764.36 ± 0.15 kg/m3	0.712 ± 0.009 mPa·s	759.57 ± 0.15 kg/m3	0.664 ± 0.009 mPa·s	–	1.4256 ± 0.001	1.4205 ± 0.001	1.4143 ± 0.001	–
C1C[C@@H]2[C@H]3CC[C@H](C3)[C@@H]2C1 [exo-tetrahydrodicyclopentadiene]	2.992 ± 0.02 mPa·s	935.72 ± 0.15 kg/m3	2.71 ± 0.018 mPa·s	931.84 ± 0.15 kg/m3	2.467 ± 0.017 mPa·s	927.94 ± 0.15 kg/m3 and 927.9 ± 0.2 kg/m3	2.255 ± 0.016 mPa·s	924.02 ± 0.15 kg/m3	2.069 ± 0.015 mPa·s	920.11 ± 0.15 kg/m3	1.907 ± 0.014 mPa·s	916.18 ± 0.15 kg/m3	1.4874 ± 0.001	1.4831 ± 0.001	1.4786 ± 0.001	–
CCC1CCCCC1 [ethylcyclohexane]	0.845 ± 0.009 mPa·s	788.02 ± 0.15 kg/m3	0.791 ± 0.009 mPa·s	784.01 ± 0.15 kg/m3	0.743 ± 0.009 mPa·s	779.98 ± 0.15 kg/m3	0.7 ± 0.009 mPa·s	775.93 ± 0.15 kg/m3	0.661 ± 0.009 mPa·s	771.86 ± 0.15 kg/m3	0.626 ± 0.009 mPa·s	767.78 ± 0.15 kg/m3	1.4319 ± 0.001	1.4276 ± 0.001	1.4225 ± 0.001	–
CC1CCC(C)C(C)C1 (stereo not drawn) [1,2,4-trimethylcyclohexane]	0.886 ± 0.012 mPa·s	790.8 ± 0.39 kg/m3	0.827 ± 0.011 mPa·s	786.92 ± 0.39 kg/m3	0.774 ± 0.011 mPa·s	783.03 ± 0.39 kg/m3	0.727 ± 0.011 mPa·s	779.13 ± 0.39 kg/m3	0.686 ± 0.01 mPa·s	775.23 ± 0.39 kg/m3	0.648 ± 0.01 mPa·s	771.32 ± 0.39 kg/m3	1.4331 ± 0.0011	1.4285 ± 0.0011	1.424 ± 0.0011	–
C1CCCCC1 [cyclohexane] + C1C[C@@H]2[C@H]3CC[C@H](C3)[C@@H]2C1	–	–	–	–	–	–	–	–	–	–	–	–	–	–	–	refractive index ([3]; 293.15 K, x2 = 0): 1.4256 ± 0.001; refractive index ([3]; 303.15 K, x2 = 0): 1.4205 ± 0.001; refractive index ([3]; 313.15 K, x2 = 0): 1.4143 ± 0.001; viscosity ([4]; 293.15 K, x2 = 0): 0.977 ± 0.01 mPa·s; mass density ([4]; 293.15 K, x2 = 0): 778.51 ± 0.15 kg/m3; viscosity ([4]; 298.15 K, x2 = 0): 0.898 ± 0.01 mPa·s; mass density ([4]; 298.15 K, x2 = 0): 773.84 ± 0.15 kg/m3; viscosity ([4]; 303.15 K, x2 = 0): 0.828 ± 0.009 mPa·s; mass density ([4]; 303.15 K, x2 = 0): 769.11 ± 0.15 kg/m3; viscosity ([4]; 308.15 K, x2 = 0): 0.766 ± 0.009 mPa·s; mass density ([4]; 308.15 K, x2 = 0): 764.36 ± 0.15 kg/m3; viscosity ([4]; 313.15 K, x2 = 0): 0.712 ± 0.009 mPa·s; mass density ([4]; 313.15 K, x2 = 0): 759.57 ± 0.15 kg/m3; viscosity ([4]; 318.15 K, x2 = 0): 0.664 ± 0.009 mPa·s
CC1CCCCC1 [methylcyclohexane]	0.733 ± 0.009 mPa·s	769.35 ± 0.15 kg/m3	0.687 ± 0.009 mPa·s	765.04 ± 0.15 kg/m3	0.646 ± 0.009 mPa·s	760.71 ± 0.15 kg/m3	0.609 ± 0.009 mPa·s	756.36 ± 0.15 kg/m3	0.576 ± 0.009 mPa·s	751.99 ± 0.16 kg/m3	0.546 ± 0.009 mPa·s	747.6 ± 0.16 kg/m3	1.422 ± 0.001	1.4172 ± 0.001	1.4118 ± 0.001	–
